Consider ten molecules from patent publication US7932277B2, “Peptide inhibitors of hepatitis C virus replication” (InterMune, Inc., priority 2007, dated 2011).

Experiment [1] deals with T1, NS3/NS4A-2 (full-length HCV NS3 protease complexed with NS4A-2) (Hepatitis C virus genotype 1a, UniProt P27958).
T1 construct: Recombinant E. coli or Baculovirus full-length NS3; host or cells: E. coli or baculovirus (insect cells)
The experiment is described as follows: NS3 inhibition assay (NS3-NS4 protease assay). The format is biochemical. To be noted: recombinant full-length NS3/NS4A-2, RETS1 substrate, kinetic fluorescence read; read-out: NS3-NS4 IC50. The method, then: Recombinant E. coli or Baculovirus full-length NS3 was diluted to 3.33 μM with assay buffer and transferred material to an eppendorf tube and place in water bath in 4° C. refrigerator. The appropriate amount of NS4A-2 to 8.3 mM in assay buffer was added to equal the volume of NS3 in step 2.1.1 (conversion factor −3.8 mg/272 μL assay buffer). The material was transferred to an eppendorf tube and place in water bath in 4° C. refrigerator.
After equilibration to 4° C., equal volumes of NS3 and NS4A-2 solutions were combined in an eppendorf tube, mix gently with a manual pipettor, and incubate mixture for 15 minutes in the 4° C. water bath. Final concentrations in the mixture are 1.67 μM NS3, 4.15 mM NS4A-2 (2485-fold molar excess NS4A-2).
After 15 minutes at 4° C., the NS3/NS4A-2 eppendorf tube was removed and place it in a room temperature water bath for 10 minutes. NS3/NS4A-2 was aliquoted at appropriate volumes and store at −80° C. (E. coli NS3 run at 2 nM in assay, aliquot at 25 μL. BV NS3 run at 3 nM in assay, aliquot at 30 μL).
Sample compounds were dissolved to 10 mM in DMSO then diluted to 2.5 mM (1:4) in DMSO. Typically, compounds were added to an assay plate at 2.5 mM concentration, yielding upon dilution a starting concentration of 50 microM in the assay inhibition curve. Compounds were serial diluted in assay buffer to provide test solutions at lower concentrations.
The E. coli. NS3/NS4A-2 was diluted to 4 nM NS3 (1:417.5 of 1.67 μM stock−18 μL1.67 μM stock+7497 μL assay buffer). The BV NS3/NS4A-2 was diluted to 6 nM NS3 (1:278.3 of 1.67 μM stock−24 μL1.67 μM stock+6655 μL assay buffer). Using the manual multichannel pipettor, careful not to introduce bubbles into the plate, add 50 μL assay buffer to wells A01-H01 of a black Costar 96-well polypropylene storage plate.
Using the manual multichannel pipettor, careful not to introduce bubbles into the plate, add 50 μL of diluted NS3/NS4A-2 from step 2.2.6 to wells A02-H12 of plate in step 2.2.7. Using the manual multichannel pipettor, careful not to introduce bubbles into the plate, transfer 25 μL of the wells in drug dilution plate in step 2.2.5 to corresponding wells in assay plate in step 2.2.8. Change tips on multichannel pipettor for each row of compounds transferred. Using the manual multichannel pipettor, careful not to introduce bubbles into the plate, mix the wells from the assay plate in step 2.2.9 by aspirating and dispensing 35 μL of the 75 μL in each well five times. Change tips on multichannel pipettor for each row of wells mixed. Cover plate with a polystyrene plate lid and pre-incubate the plate from step 2.2.10 containing NS3 protease and sample compounds 10 minutes at room temperature. While plate from step 2.2.11 is pre-incubating, dilute RETS1 substrate in a 15 mL polypropylene centrifuge tube. Dilute RETS1 substrate to 8 μM (1:80.75 of 646 μM stock−65 μL 646 μM stock+5184 μL assay buffer).
After the plate in step is done pre-incubating, and using the manual multichannel, add 25 μL of substrate to all wells on the plate. Quickly mix the plate as in step 2.2.10, mixing 65 μL of the 100 μL in the wells.
Read the plate in kinetic mode on the Molecular Devices SpectraMax Gemini XS plate reader. Reader settings: Read time: 30 minutes, Interval: 36 seconds, Reads: 51, Excitation λ: 335 nm, Emission λ: 495 nm, cutoff: 475 nm, Automix: off, Calibrate: once, PMT: high, Reads/well: 6, Vmax pts: 21 or 28/51 depending on length of linearity of reaction
IC50s are determined using a four parameter curve fit equation, and converted to Ki's using the following Km's: • Full-length E. coli NS3−2.03 μM • Full-length BV NS3−1.74 μM • where Ki=IC50/(1+[S]/Km)) • Quantitation by ELISA of the Selectable Marker Protein, Neomycin Phosphotransferase II (NPTII) in the HCV Sub-Genomic Replicon, GS4.3

Experiment [2] deals with HCV sub-genomic replicon (1377/NS3-3') in HuH-7 hepatoma cells (GS4.3). The experiment is described as follows: Quantitation by ELISA of NPTII in the HCV sub-genomic replicon, GS4.3. It is filed as cell-based, hepatitis C virus (HCV). Conditions: GS4.3 cells, 72 h incubation, NPTII ELISA, read-out: Replicon EC50. The procedure:
The HCV sub-genomic replicon (1377/NS3-3′, accession No. AJ242652), stably maintained in HuH-7 hepatoma cells, was created by Lohmann et al. Science 285: 110-113 (1999). The replicon-containing cell culture, designated GS4.3, was obtained from Dr. Christoph Seeger of the Institute for Cancer Research, Fox Chase Cancer Center, Philadelphia, Pa.
GS4.3 cells were maintained at 37° C., 5% CO2, in DMEM (Gibco 11965-092) supplemented with L-glutamine 200 mM (100×) (Gibco25030-081), non-essential amino acids (NEAA) (Biowhittaker 13-114E), heat-inactivated (HI) Fetal Bovine Serum (FBS) (Hyclone SH3007.03) and 750 μg/mL geneticin (G418)(Gibco 10131-035). Cells were sub-divided 1:3 or 4 every 2-3 days.
24 h prior to the assay, GS4.3 cells were collected, counted, and plated in 96-well plates (Costar 3585) at 7500 cells/well in 100 μL standard maintenance medium (above) and incubated in the conditions above. To initiate the assay, culture medium was removed, cells were washed once with PBS (Gibco 10010-023) and 90 μl Assay Medium (DMEM, L-glutamine, NEAA, 10% HI FBS, no G418) was added. Inhibitors were made as a 10× stock in Assay Medium, (3-fold dilutions from 10 μM to 56 pM final concentration, final DMSO concentration 1%), 10 μL were added to duplicate wells, plates were rocked to mix, and incubated as above for 72 h.
An NPTII Elisa kit was obtained from AGDIA, Inc. (Compound direct ELISA test system for Neomycin Phosphotransferase II, PSP 73000/4800). Manufacturer's instructions were followed, with some modifications. 10×PEB-1 lysis buffer was made up to include 500 μM PMSF (Sigma P7626, 50 mM stock in isopropanol). After 72 h incubation, cells were washed once with PBS and 150 μL PEB-1 with PMSF was added per well. Plates were agitated vigorously for 15 minutes, room temperature, then frozen at −70° C. Plates were thawed, lysates were mixed thoroughly, and 100 μl were applied to an NPTII Elisa plate. A standard curve was made. Lysate from DMSO-treated control cells was pooled, serially diluted with PEB-1 with PMSF, and applied to duplicate wells of the ELISA plate, in a range of initial lysate amount of 150 μL-2.5 μL. In addition, 100 μL buffer alone was applied in duplicate as a blank. Plates were sealed and gently agitated at room temperature for 2 h. Following capture incubation, the plates were washed 5×300 μL with PBS-T (0.5% Tween-20, PBS-T was supplied in the ELISA kit). For detection, a 1× dilution of enzyme conjugate diluent MRS-2 (5×) was made in PBS-T, into which 1:100 dilutions of enzyme conjugates A and B were added, as per instructions. Plates were resealed, and incubated with agitation, covered, room temperature, for 2 h. The washing was then repeated and 100 μL of room temperature TMB substrate was added. After approximately 30 minutes incubation (room temperature, agitation, covered), the reaction was stopped with 50 μL 3M sulfuric acid. Plates were read at 450 nm on a Molecular Devices Versamax plate reader.
Inhibitor effect was expressed as a percentage of DMSO-treated control signal, and inhibition curves were calculated using a 4-parameter equation: y=A+((B−A)/(1+((C/x)^D))), where C is half-maximal activity or EC50.

pEC50, pIC50: −log10 of the molar value. Where two headings read alike, the source gives them in different places.

In general, pIC50 refers to the IC50 on a negative log10 scale, so that one unit is a factor of ten. As a reminder, the pEC50 is −log10 of the EC50, conventionally taken in molar units.

T1 sequence (P27958 1027-1657, one chain of several): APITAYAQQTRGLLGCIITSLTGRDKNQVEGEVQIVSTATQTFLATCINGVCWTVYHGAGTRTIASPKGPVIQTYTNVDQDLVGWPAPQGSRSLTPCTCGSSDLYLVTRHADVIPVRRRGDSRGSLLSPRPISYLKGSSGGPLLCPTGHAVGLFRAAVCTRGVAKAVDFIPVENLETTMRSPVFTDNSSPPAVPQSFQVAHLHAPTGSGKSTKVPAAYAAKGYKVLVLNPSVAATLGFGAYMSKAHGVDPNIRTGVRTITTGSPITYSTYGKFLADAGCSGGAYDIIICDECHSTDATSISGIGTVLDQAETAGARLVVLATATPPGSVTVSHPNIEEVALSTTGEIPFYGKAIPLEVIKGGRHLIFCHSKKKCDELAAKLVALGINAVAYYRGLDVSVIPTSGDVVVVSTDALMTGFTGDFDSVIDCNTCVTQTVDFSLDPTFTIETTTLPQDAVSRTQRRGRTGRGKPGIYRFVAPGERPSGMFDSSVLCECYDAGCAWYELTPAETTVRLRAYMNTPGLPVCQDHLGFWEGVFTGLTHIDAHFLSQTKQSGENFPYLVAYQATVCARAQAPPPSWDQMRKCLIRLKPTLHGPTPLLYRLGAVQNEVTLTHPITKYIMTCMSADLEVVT

For the molecule `CC[C@@H]1C[C@]1(NC(=O)[C@@H]1C[C@@H](OC(=O)N2Cc3cccc(F)c3C2)CN1C(=O)[C@@H](Nc1ccc(F)c(C(F)(F)F)c1)C(C)C)C(=O)NS(=O)(=O)C1CC1` [Compound 52, [(3R,5S)-5-((1R,2R)-1-(cyclopropylsulfonylcarbamoyl)-2-ethylcyclopropylcarbamoyl)-1-((S)-2-(4-fluoro-3-(trifluoromethyl)phenylamino)-3-methylbutanoyl)pyrrolidin-3-yl]4-fluoroisoindoline-2-carboxylate], the pIC50 in experiment [1] is over 7.00. Also, the pEC50 in experiment [2] (Hepatitis C virus, Huh-7) was over 7.00.

“[(3R,5S)-5-((1R,2R)-1-(cyclopropylsulfonylcarbamoyl)-2-ethylcyclopropylcarbamoyl)-1-((S)-3,3-dimethyl-2-(3-(trifluoromethyl)phenylamino)butanoyl)pyrrolidin-3-yl]4-chloroisoindoline-2-carboxylate [Compound 55]”: in experiment [1], the pIC50 was over 7.00. Also, the pEC50 in experiment [2] is over 7.00.

On to `CC[C@@H]1C[C@]1(NC(=O)[C@@H]1C[C@@H](Oc2nc3ccccc3s2)CN1C(=O)[C@@H](Nc1cncc(C(F)(F)F)c1)C(C)(C)C)C(=O)NS(=O)(=O)C1CC1` [Compound 70], for which the pIC50 in experiment [1] is over 7.00. For the same molecule, the pEC50 in experiment [2] (Hepatitis C virus, Huh-7) is over 7.00.

Regarding `C=C[C@@H]1C[C@]1(NC(=O)C1Cc2cc(Oc3cccc(Cl)c3)ccc2CN1C(=O)[C@@H](Nc1ccc(F)cc1)C(C)(C)C)C(=O)NS(=O)(=O)C1CC1` (stereo partly drawn) [Compound 10, 6-(3-chlorophenoxy)-N-((1R,2S)-1-(cyclopropylsulfonylcarbamoyl)-2-vinylcyclopropyl)-2-((S)-2-(4-fluorophenylamino)-3,3-dimethylbutanoyl)-1,2,3,4-tetrahydroisoquinoline-3-carboxamide], the pIC50 in experiment [1] was over 7.00. In addition, the pEC50 in experiment [2] (Hepatitis C virus, Huh-7) was 5.00 to 6.00.

With “[(3R,5S)-5-(((1R,2R)-1-(Cyclopropylsulfonylcarbamoyl)-2-ethylcyclopropyl)carbamoyl)-1-((S)-2-cyclohexyl-2-(5-ethylthiazol-2-ylamino)acetyl)pyrrolidin-3-yl]4-chloroisoindoline-2-carboxylate [Compound 64]”, the negative logarithm of the IC50 (pIC50) in experiment [1] is over 7.00. Moreover, in experiment [2], the pEC50 was over 7.00.

On to `C=C[C@@H]1C[C@]1(NC(=O)[C@@H]1C[C@@H](OC(=O)N2Cc3cccc(F)c3C2)CN1C(=O)[C@@H](Nc1ccc(F)nc1)C(C)C)C(=O)NS(=O)(=O)C1CC1` [Compound 39, [(3R,5S)-5-((1R,2S)-1-(cyclopropylsulfonylcarbamoyl)-2-vinylcyclopropylcarbamoyl)-1-((S)-2-(6-fluoropyridin-3-ylamino)-3-methylbutanoyl)pyrrolidin-3-yl]4-fluoroisoindoline-2-carboxylate], for which the pIC50 in experiment [1] was over 7.00. Moreover, in experiment [2] (Hepatitis C virus, Huh-7), the pEC50 was 6.00 to 7.00.

For `C=C[C@@H]1C[C@]1(NC(=O)[C@@H]1C[C@@H](OC(=O)N2Cc3cccc(Cl)c3C2)CN1C(=O)[C@@H](Nc1nc(-c2ccc(F)nc2)cs1)C1CCCCC1)C(=O)NS(=O)(=O)C1CC1` [Compound 61, [(3R,5S)-5-(((1R,2S)-1-(cyclopropylsulfonylcarbamoyl)-2-vinylcyclopropyl)carbamoyl)-1-((S)-2-cyclohexyl-2-(4-(6-fluoropyridin-3-yl)thiazol-2-ylamino)acetyl)pyrrolidin-3-yl]-4-chloroisoindoline-2-carboxylate], the pIC50 in experiment [1] is over 7.00. Further, the negative logarithm of the EC50 (pEC50) in experiment [2] (Hepatitis C virus, Huh-7) was over 7.00.

Consider `CC[C@@H]1C[C@]1(NC(=O)[C@@H]1C[C@@H](OC(=O)N2Cc3cccc(F)c3C2)CN1C(=O)[C@@H](Nc1cccc(C(C)(C)C)c1)C(C)C)C(=O)NS(=O)(=O)C1CC1` [Compound 45, [(3R,5S)-1-((S)-2-(3-tert-butylphenylamino)-3-methylbutanoyl)-5-((1R,2R)-1-(cyclopropylsulfonylcarbamoyl)-2-ethylcyclopropylcarbamoyl)pyrrolidin-3-yl]4-fluoroisoindoline-2-carboxylate], for which, in experiment [1], the negative logarithm of the IC50 (pIC50) is over 7.00. Further, the pEC50 in experiment [2] (Hepatitis C virus, Huh-7) was over 7.00.

Regarding `CC[C@@H]1CC1(NC(=O)[C@@H]1C[C@@H](OC(=O)N2Cc3cccc(Cl)c3C2)CN1C(=O)[C@@H](Nc1cccnc1)C(C)(C)C)C(=O)NS(=O)(=O)C1CC1` (some centres unmarked) [Compound 74], the pIC50 in experiment [1] was over 7.00. The pEC50 in experiment [2] (Hepatitis C virus, Huh-7) is over 7.00.

As for `CC[C@@H]1C[C@]1(NC(=O)[C@@H]1C[C@@H](OC(=O)N2Cc3cccc(F)c3C2)CN1C(=O)[C@@H](Nc1cccc(Cl)c1)C(C)C)C(=O)NS(=O)(=O)C1CC1` [Compound 50, [(3R,5S)-1-((S)-2-(3-chlorophenylamino)-3-methylbutanoyl)-5-((1R,2R)-1-(cyclopropylsulfonylcarbamoyl)-2-ethylcyclopropylcarbamoyl)pyrrolidin-3-yl]4-fluoroisoindoline-2-carboxylate], the negative logarithm of the IC50 (pIC50) in experiment [1] was over 7.00. Also, in experiment [2] (Hepatitis C virus, Huh-7), the pEC50 is over 7.00.
